How the values were obtained:
[1] = target: NaV1.7 (Homo sapiens (Human), UniProt Q15858); assay: NaV flux assay, inhibition of NaV1.7; type: cell-based; details: NaV flux data, included when EP data is not available
[2] = target: NaV1.5 (Homo sapiens (Human), UniProt Q14524); assay: NaV flux assay, inhibition of NaV1.5; type: cell-based; details: NaV flux data, included when EP data is not available
Sequence of NaV1.5 (Q14524 whole entry): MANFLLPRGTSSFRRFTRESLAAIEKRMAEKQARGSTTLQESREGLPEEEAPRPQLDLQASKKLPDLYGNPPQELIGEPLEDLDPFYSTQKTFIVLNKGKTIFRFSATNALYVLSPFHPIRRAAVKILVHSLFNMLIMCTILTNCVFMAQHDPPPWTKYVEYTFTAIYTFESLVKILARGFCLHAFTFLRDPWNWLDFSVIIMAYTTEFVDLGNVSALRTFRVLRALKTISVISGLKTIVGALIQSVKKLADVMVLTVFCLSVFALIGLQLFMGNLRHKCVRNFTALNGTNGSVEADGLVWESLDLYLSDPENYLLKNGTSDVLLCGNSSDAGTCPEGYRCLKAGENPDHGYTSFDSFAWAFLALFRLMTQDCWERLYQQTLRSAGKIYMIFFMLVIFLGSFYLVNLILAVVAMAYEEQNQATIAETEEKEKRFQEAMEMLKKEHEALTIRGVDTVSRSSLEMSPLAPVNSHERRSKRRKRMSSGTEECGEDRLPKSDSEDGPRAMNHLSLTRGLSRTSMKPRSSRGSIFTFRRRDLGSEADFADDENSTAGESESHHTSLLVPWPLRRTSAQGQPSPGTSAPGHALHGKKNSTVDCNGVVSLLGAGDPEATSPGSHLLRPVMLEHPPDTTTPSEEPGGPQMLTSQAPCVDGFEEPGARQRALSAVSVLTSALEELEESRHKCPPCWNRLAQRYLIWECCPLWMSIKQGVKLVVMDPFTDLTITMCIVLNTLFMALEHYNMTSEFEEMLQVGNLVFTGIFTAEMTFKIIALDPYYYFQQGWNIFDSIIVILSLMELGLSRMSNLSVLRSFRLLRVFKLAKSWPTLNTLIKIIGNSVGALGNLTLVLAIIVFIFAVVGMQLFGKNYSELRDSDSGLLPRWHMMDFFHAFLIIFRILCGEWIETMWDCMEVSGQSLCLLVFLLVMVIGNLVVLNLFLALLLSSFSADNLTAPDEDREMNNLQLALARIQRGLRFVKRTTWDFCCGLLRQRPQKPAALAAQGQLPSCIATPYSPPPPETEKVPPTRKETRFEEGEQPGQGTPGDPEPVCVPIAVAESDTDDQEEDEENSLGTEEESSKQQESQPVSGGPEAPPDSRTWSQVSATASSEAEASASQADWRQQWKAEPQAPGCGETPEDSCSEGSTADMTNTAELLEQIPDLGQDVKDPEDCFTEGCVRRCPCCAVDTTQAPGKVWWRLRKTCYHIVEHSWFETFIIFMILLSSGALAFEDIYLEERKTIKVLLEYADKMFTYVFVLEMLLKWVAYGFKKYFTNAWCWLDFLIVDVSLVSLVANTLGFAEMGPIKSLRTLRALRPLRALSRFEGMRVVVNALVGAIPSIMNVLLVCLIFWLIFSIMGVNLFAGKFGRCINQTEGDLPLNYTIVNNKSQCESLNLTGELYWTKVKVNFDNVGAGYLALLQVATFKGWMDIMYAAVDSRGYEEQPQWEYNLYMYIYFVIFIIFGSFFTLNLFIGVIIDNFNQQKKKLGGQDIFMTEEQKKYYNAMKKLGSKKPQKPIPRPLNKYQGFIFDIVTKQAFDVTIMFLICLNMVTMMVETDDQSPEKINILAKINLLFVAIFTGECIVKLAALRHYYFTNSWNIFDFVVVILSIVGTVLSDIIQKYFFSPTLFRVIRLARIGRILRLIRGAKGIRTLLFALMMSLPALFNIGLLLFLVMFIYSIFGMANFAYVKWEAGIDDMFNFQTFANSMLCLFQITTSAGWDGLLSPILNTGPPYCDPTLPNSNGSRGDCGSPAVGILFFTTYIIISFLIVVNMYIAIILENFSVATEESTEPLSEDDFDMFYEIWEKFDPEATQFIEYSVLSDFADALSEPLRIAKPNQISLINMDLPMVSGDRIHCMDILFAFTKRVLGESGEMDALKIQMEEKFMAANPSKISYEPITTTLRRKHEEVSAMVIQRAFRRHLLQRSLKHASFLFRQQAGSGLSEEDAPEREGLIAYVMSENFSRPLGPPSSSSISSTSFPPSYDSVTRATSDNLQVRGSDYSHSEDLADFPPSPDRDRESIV

Sequence of NaV1.7 (Q15858 other isoform, or with tags, fused parts or gaps): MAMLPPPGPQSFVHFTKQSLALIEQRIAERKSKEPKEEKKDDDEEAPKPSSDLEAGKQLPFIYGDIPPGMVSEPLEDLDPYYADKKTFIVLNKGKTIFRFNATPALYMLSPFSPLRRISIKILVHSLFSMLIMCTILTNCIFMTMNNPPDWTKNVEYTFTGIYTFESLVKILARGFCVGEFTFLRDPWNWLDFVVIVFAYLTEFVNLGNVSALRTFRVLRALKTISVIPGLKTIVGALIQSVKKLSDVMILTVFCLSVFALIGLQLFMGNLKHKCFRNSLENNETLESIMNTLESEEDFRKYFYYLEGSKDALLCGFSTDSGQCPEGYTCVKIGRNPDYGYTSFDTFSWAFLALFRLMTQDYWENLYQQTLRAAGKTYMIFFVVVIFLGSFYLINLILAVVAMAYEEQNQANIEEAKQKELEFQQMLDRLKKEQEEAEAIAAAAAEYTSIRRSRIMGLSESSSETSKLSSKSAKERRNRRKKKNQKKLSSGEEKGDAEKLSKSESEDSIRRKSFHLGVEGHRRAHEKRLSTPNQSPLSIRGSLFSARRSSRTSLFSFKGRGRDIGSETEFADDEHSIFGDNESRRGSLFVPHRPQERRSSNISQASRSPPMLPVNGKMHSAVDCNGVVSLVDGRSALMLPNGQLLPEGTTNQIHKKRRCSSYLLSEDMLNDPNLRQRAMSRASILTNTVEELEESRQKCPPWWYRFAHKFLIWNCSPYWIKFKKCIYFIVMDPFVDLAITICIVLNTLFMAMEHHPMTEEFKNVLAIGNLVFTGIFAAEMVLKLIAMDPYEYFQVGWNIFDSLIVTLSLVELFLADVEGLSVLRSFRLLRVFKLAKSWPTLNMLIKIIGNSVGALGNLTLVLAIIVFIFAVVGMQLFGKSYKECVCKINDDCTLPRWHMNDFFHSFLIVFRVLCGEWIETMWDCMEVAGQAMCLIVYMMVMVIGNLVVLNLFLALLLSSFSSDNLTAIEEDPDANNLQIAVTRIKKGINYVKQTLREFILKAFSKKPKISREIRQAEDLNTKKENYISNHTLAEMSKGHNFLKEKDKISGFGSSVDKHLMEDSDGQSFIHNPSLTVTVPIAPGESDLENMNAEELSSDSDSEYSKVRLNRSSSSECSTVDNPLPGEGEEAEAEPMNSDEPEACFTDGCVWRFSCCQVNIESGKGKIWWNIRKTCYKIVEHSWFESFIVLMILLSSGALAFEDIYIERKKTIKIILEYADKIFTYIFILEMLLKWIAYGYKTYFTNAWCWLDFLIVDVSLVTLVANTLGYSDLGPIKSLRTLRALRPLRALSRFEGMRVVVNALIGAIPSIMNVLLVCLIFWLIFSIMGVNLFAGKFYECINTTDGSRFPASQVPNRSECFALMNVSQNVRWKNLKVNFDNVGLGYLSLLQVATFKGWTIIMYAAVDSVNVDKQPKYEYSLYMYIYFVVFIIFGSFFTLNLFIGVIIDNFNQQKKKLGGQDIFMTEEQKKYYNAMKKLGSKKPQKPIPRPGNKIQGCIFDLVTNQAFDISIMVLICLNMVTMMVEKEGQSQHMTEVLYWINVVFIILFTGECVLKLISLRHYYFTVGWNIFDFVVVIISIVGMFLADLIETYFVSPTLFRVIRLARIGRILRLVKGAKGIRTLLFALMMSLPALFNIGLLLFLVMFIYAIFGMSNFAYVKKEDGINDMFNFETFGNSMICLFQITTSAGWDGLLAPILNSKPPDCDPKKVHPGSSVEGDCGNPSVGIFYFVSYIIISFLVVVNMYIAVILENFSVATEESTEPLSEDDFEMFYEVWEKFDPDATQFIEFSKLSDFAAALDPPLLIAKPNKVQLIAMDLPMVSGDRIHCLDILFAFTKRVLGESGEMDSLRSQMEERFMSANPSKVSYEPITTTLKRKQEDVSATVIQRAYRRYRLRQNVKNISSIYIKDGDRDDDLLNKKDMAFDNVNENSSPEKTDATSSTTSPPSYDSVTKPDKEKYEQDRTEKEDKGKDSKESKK
Sequence of NaV1.7 (Q07699 19-218 partner): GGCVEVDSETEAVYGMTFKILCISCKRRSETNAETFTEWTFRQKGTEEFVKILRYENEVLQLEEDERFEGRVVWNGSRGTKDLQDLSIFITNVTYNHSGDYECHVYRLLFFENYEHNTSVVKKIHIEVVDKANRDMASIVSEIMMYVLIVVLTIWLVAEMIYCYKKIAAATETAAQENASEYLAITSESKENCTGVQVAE

Compound | IC50 [1] | IC50 [2]
O=S(=O)(Nc1ncns1)c1cc(F)c(OCC2CNCCN2c2ccc(Cl)cc2)cc1F (stereo not drawn) [Example 112, 4-((1-(4-chlorophenyl)piperazin-2-yl)methoxy)-2,5-difluoro-N-(1,2,4-thiadiazol-5-yl)benzenesulfonamide] | 0.326 µM | > 10 µM
O=S(=O)(Nc1ncns1)c1cc(F)c(OC[C@@H]2CNCC[C@H]2c2ccc(F)c(C(F)F)c2)cc1F (relative stereo) [Example 108, 4-((trans-4-(3-(difluoromethyl)-4-fluorophenyl)piperidin-3-yl)methoxy)-2,5-difluoro-N-(1,2,4-thiadiazol-5-yl)benzenesulfonamide] | 0.071 µM | > 10 µM
O=S(=O)(Nc1ncns1)c1cc(F)c(OC[C@@H]2CNCC[C@H]2c2cc(F)c(F)cc2F)cc1F (relative stereo) [Example 106, 2,5-difluoro-N-(1,2,4-thiadiazol-5-yl)-4-((trans-4-(2,4,5-trifluorophenyl)piperidin-3-yl)methoxy)benzenesulfonamide] | 0.181 µM | > 10 µM
CC(C)CNS(=O)(=O)c1cc(F)c(OC[C@@H]2CNCC[C@H]2c2ccc(Cl)cc2)cc1F (relative stereo) [Example 96, 4-((trans-4-(4-chlorophenyl)piperidin-3-yl)methoxy)-2,5-difluoro-N-isobutylbenzenesulfonamide] | 4.9 µM | 7.56 µM
Cc1ccc([C@@H]2CCNC[C@H]2COc2cc(F)c(S(=O)(=O)Nc3ncns3)cc2F)cc1 (relative stereo) [Example 100, 2,5-difluoro-N-(1,2,4-thiadiazol-5-yl)-4-((trans-4-(p-tolyl)piperidin-3-yl)methoxy)benzenesulfonamide] | 0.393 µM | > 10 µM
O=C1CC[C@@H](c2ccc(Cl)cc2)[C@H](COc2cc(F)c(S(=O)(=O)Nc3ncns3)cc2F)C1 (relative stereo) [Example 109, 4-((trans-2-(4-chlorophenyl)-5-oxocyclohexyl)methoxy)-2,5-difluoro-N-(1,2,4-thiadiazol-5-yl)benzenesulfonamide] | 0.244 µM | > 10 µM
COc1ccc([C@@H]2CCNC[C@H]2COc2cc(F)c(S(=O)(=O)Nc3ncns3)cc2F)cc1 (relative stereo) [Example 94, 2,5-difluoro-4-((trans-4-(4-methoxyphenyl)piperidin-3-yl)methoxy)-N-(1,2,4-thiadiazol-5-yl)benzenesulfonamide] | 0.132 µM | > 10 µM
O=S(=O)(c1cc(F)c(OC[C@@H]2CNCC[C@H]2c2ccc(F)cc2)cc1F)n1cccn1 (relative stereo) [Example 98, trans-3-((4-((1H-pyrazol-1-yl)sulfonyl)-2,5-difluorophenoxy)methyl)-4-(4-fluorophenyl)piperidine] | 7.22 µM | 7.53 µM
CN(c1ncns1)S(=O)(=O)c1cc(F)c(OC[C@@H]2CNCC[C@H]2c2ccc(Cl)cc2)cc1F (relative stereo) [Example 79, 4-((trans-4-(4-chlorophenyl)piperidin-3-yl)methoxy)-2,5-difluoro-N-methyl-N-(1,2,4-thiadiazol-5-yl)benzenesulfonamide] | 7.88 µM | > 10 µM
O=S(=O)(Nc1ncns1)c1cc(F)c(OC[C@@H]2CNCC[C@H]2c2ccc(F)c(C(F)(F)F)c2)cc1F (relative stereo) [Example 107, 2,5-difluoro-4-((trans-4-(4-fluoro-3-(trifluoromethyl)phenyl)piperidin-3-yl)methoxy)-N-(1,2,4-thiadiazol-5-yl)benzenesulfonamide] | 0.038 µM | > 10 µM
O=S(=O)(Nc1ncns1)c1cc(F)c(OC[C@@H]2C[C@@H](O)CCC2c2ccc(Cl)cc2)cc1F (stereo partly drawn) [Example 111, 4-(((trans-5R)-2-(4-chlorophenyl)-5-hydroxycyclohexyl)methoxy)-2,5-difluoro-N-(1,2,4-thiadiazol-5-yl)benzenesulfonamide] | 2.04 µM | > 10 µM
O=S(=O)(Nc1ncns1)c1cc(F)c(OC[C@@H]2C[C@H](O)CCC2c2ccc(Cl)cc2)cc1F (stereo partly drawn) [Example 110, 4-(((trans-5S)-2-(4-chlorophenyl)-5-hydroxycyclohexyl)methoxy)-2,5-difluoro-N-(1,2,4-thiadiazol-5-yl)benzenesulfonamide] | 0.426 µM | > 10 µM
